Data as given in ChEMBL document CHEMBL1201861, “Genomics of Drug Sensitity in Cancer screening data, Wellcome Trust Sanger Institute”.

Key:
Assay in all cases: cells
SW780 = format: functional, cell-based, Homo sapiens; conditions: Homo sapiens, SW780;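 note: growth inhibition of the cells, read out with a cell viability assay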
Description: SANGER: Inhibition of human SW780 cell growth in a cell viability assay.

SW 954 = format: functional, cell-based, Homo sapiens; conditions: Homo sapiens, SW 954;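 note: growth inhibition of SW954 human cancer cells, read out as cell viability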
Description: SANGER: Inhibition of human SW954 cell growth in a cell viability assay.

RH-1 = format: functional, cell-based, Homo sapiens; conditions: Homo sapiens, RH-1;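 note: growth inhibition of human RH-1 cells, read out with a cell viability assay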
Description: SANGER: Inhibition of human RH-1 cell growth in a cell viability assay.

NCI-H2452 = format: functional, cell-based, Homo sapiens; conditions: Homo sapiens, NCI-H2452;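 note: growth inhibition of NCI-H2452 cells, read out with a cell viability assay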
Description: SANGER: Inhibition of human NCI-H2452 cell growth in a cell viability assay.

SW1417 = format: functional, cell-based, Homo sapiens; conditions: Homo sapiens, SW1417;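 note: growth inhibition of human SW1417 cells, read out with a cell viability assay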
Description: SANGER: Inhibition of human SW1417 cell growth in a cell viability assay.

OVCAR-4 = format: functional, cell-based, Homo sapiens; conditions: Homo sapiens, OVCAR-4;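 note: growth inhibition of human OVCAR-4 cells, measured with a cell viability assay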
Description: SANGER: Inhibition of human OVCAR-4 cell growth in a cell viability assay.

NCI-H1304 = format: functional, cell-based; conditions: Homo sapiens;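 note: growth inhibition of the cancer cell line, measured in a cell viability assay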
Description: SANGER: Inhibition of human NCI-H1304 cell growth in a cell viability assay.

DBTRG-05MG = format: functional, cell-based, Homo sapiens; conditions: Homo sapiens, DBTRG-05MG;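 note: cell viability assay measuring growth inhibition of human DBTRG-05MG cells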
Description: SANGER: Inhibition of human DBTRG-05MG cell growth in a cell viability assay.

MHH-NB-11 = format: functional, cell-based, Homo sapiens; conditions: Homo sapiens, MHH-NB-11;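 note: growth inhibition of human MHH-NB-11 cells, read out by a cell viability assay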
Description: SANGER: Inhibition of human MHH-NB-11 cell growth in a cell viability assay.

HPAF-II = format: functional, cell-based, Homo sapiens; conditions: Homo sapiens, HPAF-II;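 note: growth inhibition of HPAF-II cells, read out with a cell viability assay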
Description: SANGER: Inhibition of human HPAF-II cell growth in a cell viability assay.

QIMR-WIL = format: functional, cell-based; conditions: Homo sapiens;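 note: growth inhibition of QIMR-WIL cells, read out with a cell viability assay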
Description: SANGER: Inhibition of human QIMR-WIL cell growth in a cell viability assay.

EW-11 = format: functional, cell-based, Homo sapiens; conditions: Homo sapiens, EW-11;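 note: growth inhibition of human EW-11 cells, measured with a cell viability assay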
Description: SANGER: Inhibition of human EW-11 cell growth in a cell viability assay.

SK-MEL-24 = format: functional, cell-based; conditions: Homo sapiens;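 note: growth inhibition read out by a cell viability assay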
Description: SANGER: Inhibition of human SK-MEL-24 cell growth in a cell viability assay.

SK-N-FI = format: functional, cell-based, Homo sapiens; conditions: Homo sapiens, SK-N-FI;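 note: cell viability assay measuring growth inhibition of human SK-N-FI cells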
Description: SANGER: Inhibition of human SK-N-FI cell growth in a cell viability assay.

ES5 = format: functional, cell-based, Homo sapiens; conditions: Homo sapiens, ES5;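 note: growth inhibition of human ES5 cells, read out by a cell viability assay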
Description: SANGER: Inhibition of human ES5 cell growth in a cell viability assay.

BT-20 = format: functional, cell-based, Homo sapiens; conditions: Homo sapiens, BT-20;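 note: cell viability assay measuring suppression of growth in human BT-20 cells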
Description: SANGER: Inhibition of human BT-20 cell growth in a cell viability assay.

NCI-H69 = format: functional, cell-based; conditions: Homo sapiens;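 note: growth inhibition of the cell line, read out with a cell viability assay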
Description: SANGER: Inhibition of human NCI-H69 cell growth in a cell viability assay.

BB49-HNC = format: functional, cell-based, Homo sapiens; conditions: Homo sapiens, BB49-HNC;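 note: cell viability assay read-out, reported as inhibition of BB49-HNC cell growth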
Description: SANGER: Inhibition of human BB49-HNC cell growth in a cell viability assay.

KG-1 = format: functional, cell-based; conditions: Homo sapiens
Description: SANGER: Inhibition of human KG-1 cell growth in a cell viability assay.

SW 962 = format: functional, cell-based, Homo sapiens; conditions: Homo sapiens, SW 962;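 note: growth inhibition of human SW962 cells, read out by a cell viability assay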
Description: SANGER: Inhibition of human SW962 cell growth in a cell viability assay.

MOLT-4 = format: functional, cell-based; conditions: Homo sapiens;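 note: growth inhibition of MOLT-4 cells, determined with a cell viability readout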
Description: SANGER: Inhibition of human MOLT-4 cell growth in a cell viability assay.

CHL-1 = format: functional, cell-based, Homo sapiens; conditions: Homo sapiens, CHL-1;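 note: cell growth inhibition, read out with a cell viability assay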
Description: SANGER: Inhibition of human CHL-1 cell growth in a cell viability assay.

HOP-92 = format: functional, cell-based, Homo sapiens; conditions: Homo sapiens, HOP-92;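 note: cell viability readout, with IC50 reflecting inhibition of HOP-92 cell growth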
Description: SANGER: Inhibition of human HOP-92 cell growth in a cell viability assay.

YKG-1 = format: functional, cell-based, Homo sapiens; conditions: Homo sapiens, YKG-1;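 note: cell growth inhibition, read out with a viability assay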
Description: SANGER: Inhibition of human YKG-1 cell growth in a cell viability assay.

D283 Med = format: functional, cell-based, Homo sapiens; conditions: Homo sapiens, D283 Med
Description: SANGER: Inhibition of human D-283MED cell growth in a cell viability assay.

BFTC-909 = format: functional, cell-based, Homo sapiens; conditions: Homo sapiens, BFTC-909
Description: SANGER: Inhibition of human BFTC-909 cell growth in a cell viability assay.

RS4-11 = format: functional, cell-based; conditions: Homo sapiens;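 note: growth inhibition of RS4-11 cells, read out by a cell viability assay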
Description: SANGER: Inhibition of human RS4-11 cell growth in a cell viability assay.

ML-2 = format: functional, cell-based; conditions: Homo sapiens;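 note: growth inhibition of ML-2 cells, measured with a cell viability readout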
Description: SANGER: Inhibition of human ML-2 cell growth in a cell viability assay.

EW-13 = format: functional, cell-based; conditions: Homo sapiens;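 note: growth inhibition of EW-13 cells, read out with a cell viability assay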
Description: SANGER: Inhibition of human EW-13 cell growth in a cell viability assay.

MDA-MB-231 = format: functional, cell-based, Homo sapiens; conditions: Homo sapiens, MDA-MB-231
Description: SANGER: Inhibition of human MDA-MB-231 cell growth in a cell viability assay.

LB2518-MEL = format: functional, cell-based, Homo sapiens; conditions: Homo sapiens, LB2518-MEL;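 note: growth inhibition of human LB2518-MEL cells, measured with a cell viability assay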
Description: SANGER: Inhibition of human LB2518-MEL cell growth in a cell viability assay.

MFH-ino = format: functional, cell-based; conditions: Homo sapiens;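 note: growth inhibition of human MFH-ino cells, read out by a cell viability assay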
Description: SANGER: Inhibition of human MFH-ino cell growth in a cell viability assay.

SK-OV-3 = format: functional, cell-based, Homo sapiens; conditions: Homo sapiens, SK-OV-3;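 note: growth inhibition of SK-OV-3 human cells, read out with a cell viability assay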
Description: SANGER: Inhibition of human SK-OV-3 cell growth in a cell viability assay.

GR-ST = format: functional, cell-based; conditions: Homo sapiens
Description: SANGER: Inhibition of human GR-ST cell growth in a cell viability assay.

NB7 = format: functional, cell-based; conditions: Homo sapiens;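 note: growth inhibition of NB7 cells, read out with a cell viability assay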
Description: SANGER: Inhibition of human NB7 cell growth in a cell viability assay.

T84 = format: functional, cell-based, Homo sapiens; conditions: Homo sapiens, T84;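 note: growth inhibition measured with a cell viability readout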
Description: SANGER: Inhibition of human T84 cell growth in a cell viability assay.

SK-HEP1 = format: functional, cell-based, Homo sapiens, SK-HEP-1; conditions: Homo sapiens, SK-HEP1;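 note: cell viability readout used to quantify reduction in proliferation of human SK-HEP-1 cells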
Description: SANGER: Inhibition of human SK-HEP-1 cell growth in a cell viability assay.

IST-MEL1 = format: functional, cell-based, Homo sapiens; conditions: Homo sapiens, IST-MEL1;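 note: growth inhibition of the cell line, read out with a cell viability assay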
Description: SANGER: Inhibition of human IST-MEL1 cell growth in a cell viability assay.

LB996-RCC = format: functional, cell-based; conditions: Homo sapiens
Description: SANGER: Inhibition of human LB996-RCC cell growth in a cell viability assay.

RPMI-7951 = format: functional, cell-based, Homo sapiens; conditions: Homo sapiens, RPMI-7951
Description: SANGER: Inhibition of human RPMI-7951 cell growth in a cell viability assay.

T47D = format: functional, cell-based, Homo sapiens; conditions: Homo sapiens, T47D;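 note: growth inhibition of human T47D cells, measured with a cell viability assay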
Description: SANGER: Inhibition of human T47D cell growth in a cell viability assay.

MOLT-16 = format: functional, cell-based; conditions: Homo sapiens;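 note: growth inhibition of human MOLT-16 cells, read out with a cell viability assay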
Description: SANGER: Inhibition of human MOLT-16 cell growth in a cell viability assay.

HL-60 = format: functional, cell-based; conditions: Homo sapiens;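 note: growth inhibition of human HL-60 cells, read out with a cell viability assay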
Description: SANGER: Inhibition of human HL-60 cell growth in a cell viability assay.

KYSE-410 = format: functional, cell-based, Homo sapiens; conditions: Homo sapiens, KYSE-410;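 note: growth inhibition of KYSE-410 cells, measured through a cell viability readout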
Description: SANGER: Inhibition of human KYSE-410 cell growth in a cell viability assay.

TE-5 = format: functional, cell-based, Homo sapiens; conditions: Homo sapiens, TE-5;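 note: inhibition of cell growth, read out by a cell viability assay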
Description: SANGER: Inhibition of human TE-5 cell growth in a cell viability assay.

VA-ES-BJ = format: functional, cell-based, Homo sapiens; conditions: Homo sapiens, VA-ES-BJ;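 note: growth inhibition of the VA-ES-BJ cell line, read out by a cell viability assay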
Description: SANGER: Inhibition of human VA-ES-BJ cell growth in a cell viability assay.

KYSE-150 cell line = format: functional, cell-based, Homo sapiens; conditions: Homo sapiens, KYSE-150;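 note: growth inhibition of human KYSE-150 cells, read out with a cell viability assay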
Description: SANGER: Inhibition of human KYSE-150 cell growth in a cell viability assay.

KU812 cell line = format: functional, cell-based; conditions: Homo sapiens;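 note: growth inhibition of KU812 cells, read out with a cell viability assay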
Description: SANGER: Inhibition of human KU812 cell growth in a cell viability assay.

5637 = format: functional, cell-based, Homo sapiens; conditions: Homo sapiens
Description: SANGER: Inhibition of human 5637 cell growth in a cell viability assay.

HSC-3 = format: functional, cell-based, Homo sapiens; conditions: Homo sapiens, HSC-3
Description: SANGER: Inhibition of human HSC-3 cell growth in a cell viability assay.

GI-1 = format: functional, cell-based, Homo sapiens; conditions: Homo sapiens, GI-1;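 note: growth inhibition of human GI-1 cells, measured with a cell viability readout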
Description: SANGER: Inhibition of human GI-1 cell growth in a cell viability assay.

HO-1-N-1 = format: functional, cell-based, Homo sapiens; conditions: Homo sapiens, HO-1-N-1;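 note: growth inhibition of human HO-1-N-1 cells, read out with a cell viability assay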
Description: SANGER: Inhibition of human HO-1-N-1 cell growth in a cell viability assay.

Measured: IC50

CCOc1nc(NC(=O)Cc2cc(OC)ccc2OC)cc(N)c1C#N
2.27 µM: NB7
> 10 µM: SW780 | SW 954 | RH-1 | NCI-H2452 | SW1417 | OVCAR-4 | NCI-H1304 | DBTRG-05MG | MHH-NB-11 | HPAF-II | QIMR-WIL | EW-11 | SK-MEL-24 | SK-N-FI | ES5 | BT-20 | NCI-H69 | BB49-HNC | KG-1 | SW 962 | MOLT-4 | CHL-1 | HOP-92 | YKG-1 | D283 Med | BFTC-909 | RS4-11 | ML-2 | EW-13 | MDA-MB-231 | LB2518-MEL | MFH-ino | SK-OV-3 | GR-ST | T84 | SK-HEP1 | IST-MEL1 | LB996-RCC | RPMI-7951 | T47D | MOLT-16 | HL-60 | KYSE-410 | TE-5 | VA-ES-BJ | KYSE-150 cell line | KU812 cell line | 5637 | HSC-3 | GI-1 | HO-1-N-1

CC(=O)O[C@@H]1[C@@H](OC(C)=O)[C@@H](O)[C@H](Oc2c(-c3ccc(O)cc3)oc3cc(O)cc(O)c3c2=O)O[C@H]1C
> 10 µM: SW780 | SW 954 | RH-1 | NCI-H2452 | SW1417 | OVCAR-4 | NCI-H1304 | DBTRG-05MG | MHH-NB-11 | HPAF-II | QIMR-WIL | EW-11 | SK-MEL-24 | SK-N-FI | ES5 | BT-20 | NCI-H69 | BB49-HNC | KG-1 | SW 962 | MOLT-4 | CHL-1 | HOP-92 | YKG-1 | D283 Med | BFTC-909 | RS4-11 | ML-2 | EW-13 | MDA-MB-231 | LB2518-MEL | MFH-ino | SK-OV-3 | GR-ST | NB7 | T84 | SK-HEP1 | IST-MEL1 | LB996-RCC | RPMI-7951 | T47D | MOLT-16 | HL-60 | KYSE-410 | TE-5 | VA-ES-BJ | KYSE-150 cell line | KU812 cell line | 5637 | HSC-3 | GI-1 | HO-1-N-1

C=CCNC1=C2C[C@@H](C)C[C@H](OC)[C@H](O)[C@@H](C)/C=C(\C)[C@H](OC(N)=O)[C@@H](OC)/C=C\C=C(/C)C(=O)NC(=CC1=O)C2=O [TANESPIMYCIN]
0.176 µM: SK-OV-3
0.34 µM: KU812 cell line
0.292 µM: SW 954
0.0797 µM: BFTC-909
0.258 µM: LB2518-MEL
0.0524 µM: KYSE-150 cell line
0.146 µM: GI-1
0.14 µM: NCI-H2452
0.00717 µM: RPMI-7951
0.0507 µM: YKG-1
0.0395 µM: SW 962
< 0.00391 µM: IST-MEL1
0.336 µM: LB996-RCC
0.0424 µM: BB49-HNC
0.0477 µM: KYSE-410
0.0574 µM: 5637
0.0445 µM: VA-ES-BJ
0.00929 µM: HSC-3
0.139 µM: SK-MEL-24
0.213 µM: HPAF-II
0.851 µM: QIMR-WIL
0.042 µM: SW780
0.0225 µM: CHL-1
> 1 µM: RH-1 | SW1417 | OVCAR-4 | NCI-H1304 | MHH-NB-11 | EW-11 | SK-N-FI | ES5 | BT-20 | KG-1 | MOLT-4 | HOP-92 | D283 Med | RS4-11 | EW-13 | MDA-MB-231 | MFH-ino | GR-ST | NB7 | T84 | SK-HEP1 | T47D | MOLT-16 | HL-60 | TE-5
0.0402 µM: HO-1-N-1
0.231 µM: ML-2
0.976 µM: NCI-H69
0.581 µM: DBTRG-05MG
